# US20250221966A1, “RXFP1 AGONISTS” (BRISTOL-MYERS SQUIBB COMPANY, priority 2021, published 2025)
# Target: T1, human RXFP1 (Homo sapiens, UniProt Q9HBX9)
# T1 construct: expressed in transfected cells
# T1 sequence (Q9HBX9 1-757): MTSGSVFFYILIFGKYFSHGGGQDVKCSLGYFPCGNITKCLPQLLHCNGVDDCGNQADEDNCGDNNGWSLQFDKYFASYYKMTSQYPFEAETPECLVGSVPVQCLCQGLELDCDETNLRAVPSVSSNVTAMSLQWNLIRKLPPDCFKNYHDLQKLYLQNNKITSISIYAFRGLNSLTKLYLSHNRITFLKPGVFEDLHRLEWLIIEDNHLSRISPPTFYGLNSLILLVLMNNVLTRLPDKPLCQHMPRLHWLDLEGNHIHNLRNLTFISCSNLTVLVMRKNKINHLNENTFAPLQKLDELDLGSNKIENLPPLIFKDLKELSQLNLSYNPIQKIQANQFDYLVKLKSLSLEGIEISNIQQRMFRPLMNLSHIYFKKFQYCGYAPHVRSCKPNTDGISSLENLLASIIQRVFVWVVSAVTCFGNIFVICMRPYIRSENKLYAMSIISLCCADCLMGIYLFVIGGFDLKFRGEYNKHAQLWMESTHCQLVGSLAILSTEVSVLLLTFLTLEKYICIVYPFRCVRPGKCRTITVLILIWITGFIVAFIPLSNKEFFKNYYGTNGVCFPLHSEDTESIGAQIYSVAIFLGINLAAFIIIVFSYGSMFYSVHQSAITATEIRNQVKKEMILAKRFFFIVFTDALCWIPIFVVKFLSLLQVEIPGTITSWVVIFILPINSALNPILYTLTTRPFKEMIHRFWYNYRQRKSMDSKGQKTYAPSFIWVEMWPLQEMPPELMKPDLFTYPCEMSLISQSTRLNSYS
# Assay: RXFP1 cAMP assay (hRXFP1 HEK293 cAMP assay, HTRF)
# Format: cell-based
# Settings: HEK293 cells stably expressing human RXFP1, 30 min at room temperature, read-out: cAMP hRXFP1 HEK293 Assay EC50
# How it was run: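 Intracellular cAMP was read by HTRF, with potency fitted to a 4-parameter logistic curve. Compound exposure (0.010 nM–50 μM final, 2% DMSO) lasted 30 min at room temperature. Cells were hRXFP1-HEK293 at 1500 per well in IBMX-containing (0.5 mM) HEPES-buffered HBSS.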
row,Compound,EC50 [nM]
1,COc1ccc(C2=NOC3COCC23)cc1C(=O)N[C@H]1[C@@H](C(=O)NCC(C)(C)OC)[C@H]2CC[C@@H]1/C2=C\C1CC1 (stereo partly drawn) [compound 564],47.3
2,"COc1ccc([C@@H]2CO[C@H]3[C@@H]2OC[C@@H]3O)cc1C(=O)N[C@H]1[C@@H](C(=O)Nc2ccc(F)c(C(F)(F)F)c2)[C@H]2CC[C@@H]1/C2=C\C1CC1 [Example 536, (1R,2S,3R,4R,Z)-7-(cyclopropylmethylene)-N-(4-fluoro-3-(trifluoromethyl)phenyl)-3-(5-((3R,3aR,6S,6aR)-6-hydroxyhexahydrofuro[3,2-b]furan-3-yl)-2-methoxybenzamido)bicyclo[2.2.1]heptane-2-carboxamide]",24.7
3,COc1ccc(C2=NOC3COCC23)cc1C(=O)N[C@H]1[C@@H](C(=O)NC2CCC(C#N)C2)[C@H]2CC[C@@H]1/C2=C\C1CC1 (stereo partly drawn) [Example 664],367
4,COc1ccc(C2=NOC3CC(C(C)O)CC23)cc1C(=O)N[C@H]1[C@@H](C(=O)Nc2ccc(F)c(C(F)(F)F)c2)[C@H]2CC[C@@H]1/C2=C\C1CC1 (stereo partly drawn) [compound 843],0.9
5,COc1ccc(-c2cccc(C3=NOC4CC(O)CC34)c2)cc1C(=O)N[C@H]1[C@@H](C(=O)Nc2ccc(F)c(C(F)(F)F)c2)[C@H]2CC[C@@H]1/C2=C\C1CC1 (stereo partly drawn) [compound 902],8.7
6,"COc1ccc(C2=NOC3CN(CCO)CC23)cc1C(=O)N[C@H]1[C@@H](C(=O)Nc2ccc(F)c(C(F)(F)F)c2)[C@H]2CC[C@@H]1/C2=C\C1CC1 (single isomer, unassigned) [compound 691]",735
7,COc1ccc(C2=NOC(C)(C)N2C(C)C)cc1C(=O)N[C@H]1[C@@H](C(=O)Nc2ccc(F)c(C(F)(F)F)c2)[C@H]2CC[C@@H]1/C2=C\C1CC1 [Example 591],86.6
8,O=C(N[C@H]1[C@@H](C(=O)NC23CC(F)(C2)C3)[C@H]2CC[C@@H]1/C2=C\C1CC1)c1cc(C2=NOC3CC(CO)CC23)cc(F)c1OCC1CC1 (stereo partly drawn) [compound 763],2.1
9,COc1ccc(C2=NOC3COCC23)cc1C(=O)N[C@H]1[C@@H](C(=O)N[C@H](C)C2(C)CC2)[C@H]2CC[C@@H]1/C2=C\C1CC1 (stereo partly drawn) [Example 447],0.8
10,COc1ccc(-c2cccc3c2ccn3CC(C)(C)O)cc1C(=O)N[C@@H]1C2CCC(/C2=C/C2CCCC2)[C@@H]1C(=O)Nc1ccc(F)c(C(F)(F)F)c1 (stereo partly drawn) [compound 895],0.2

# Results, then the molecule that gave them:
row,EC50 [nM],Compound
1,120,COc1cc(F)c(F)cc1C(=O)N[C@@H]1C2CCC(/C2=C/c2cccc(Cl)c2)[C@@H]1C(=O)Nc1ccc(F)c(C(F)(F)F)c1 (stereo partly drawn) [compound 17]
2,0.6,COc1c(F)cc(C2=NOC3CC(CO)CC23)cc1C(=O)N[C@H]1[C@@H](C(=O)N[C@H](C)C2(C)CC2)[C@H]2CC[C@@H]1/C2=C\C1CCCC1 (stereo partly drawn) [compound 811]
3,2.1,COc1ccc(-c2cc([C@H](OC(=O)NC3CCC3)C(F)(F)F)ccc2F)cc1C(=O)N[C@H]1[C@@H](C(=O)N[C@H](C)C2(C)CC2)[C@H]2CC[C@@H]1/C2=C\C1CC(F)(F)C1 [compound 967]
4,712,COc1ccc(C2=NOC3COCC23)cc1C(=O)N[C@H]1[C@@H](C(=O)NCc2ncccc2C(F)(F)F)[C@H]2CC[C@@H]1/C2=C\C1CC1 (stereo partly drawn) [compound 690]
5,55,COc1cc(F)c(F)cc1C(=O)N[C@@H]1C2CCC(/C2=C/c2ccc(Cl)cc2)[C@@H]1C(=O)Nc1ccc(F)c(C(F)(F)F)c1 (stereo partly drawn) [compound 21]
6,1.6,COc1ccc(C2=NOC3CC(CO)CC23)cc1C(=O)N[C@H]1[C@@H](C(=O)Nc2ccc(F)c(C(F)(F)F)c2)[C@H]2CC[C@@H]1/C2=C\C(C)C (stereo partly drawn) [compound 450]
7,45,COc1ccc(-c2cc(C(N)=O)on2)cc1C(=O)N[C@@H]1C2CCC(/C2=C/C2CC2)[C@@H]1C(=O)Nc1ccc(F)c(C(F)(F)F)c1 (stereo partly drawn) [compound 426]

# Same assay, conditions: cAMP hRXFP1 HEK293 Assay EC50, HEK293 cells stably expressing human RXFP1, 30 min at room temperature
row,Compound,EC50 [nM]
1,CNC(=O)OC(C(=O)O)c1ccc(F)c(-c2ccc(OC)c(C(=O)N[C@@H]3C4CCC(/C4=C/C4CC4)[C@@H]3C(=O)Nc3ccc(F)c(C(F)(F)F)c3)c2)c1 (stereo partly drawn) [Example 179],5
